Values of other authors in patent US20250171456A1, “P[…] AND THEIR THERAPEUTIC USES” (priority 2022, published 2025).

Experiments:
[1] = humans, after oral administration of psilocybin (Passie, 2002)
[2] = Ballesteros, 2006

| Structure (SMILES) | time until psilocin is detectable in significant amounts in the plasma [1] [min] | solubility in water relative to psilocin [2] |
| --- | --- | --- |
| CN(C)CCc1c[nH]c2cccc(O)c12 [Psilocin] | 20 to 40 |  |
| CN(C)CCc1c[nH]c2cccc(OP(=O)(O)O)c12 [Psilocybin] |  | more soluble in water than psilocin |
